Here are results for 32 molecules from the METLIN SMRT retention time set (Domingo-Almenara et al. 2019).

SMILES strings stand for the structures.

The data set can be described thus: gradient 5% acetonitrile 3 min, to 50% in 2 min, to 85% in 15 min, held 3 min, 100 µL/min. Conditions: column: Zorbax Extend-C18 2.1 x 50 mm; eluents: water / acetonitrile, 0.1% formic acid. In outline: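 Over 3 months, pure standards in mixtures of ~100 molecules were run by HPLC coupled to a quadrupole time-of-flight mass spectrometer in positive and negative ionization mode. The column was a Zorbax Extend-C18 (2.1 × 50 mm, 1.8 μm) at 100 μL/min, eluted with water and acetonitrile each holding 0.1% formic acid, with 40 μL dead and 900 μL dwell volumes. Retention time was determined from adduct peaks chosen by software and checked manually.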
For `Cc1ccc(CNC(=O)C2(C)CN(S(C)(=O)=O)CC(=O)N2c2cccc(C)c2C)cc1` (configuration not stated), the RP-LC retention time was 856 s. As for `Cc1ccc(C)c(C(=O)N2CCN(c3nc4cccnc4o3)CC2)c1`, the figure is 765 s; as for `COc1ccc(C(CC(=O)N2CCN(c3ccccn3)CC2)N2Cc3ccccc3C2=O)cc1OC` (configuration not stated), 612 s; as for `O=S(=O)(c1ccc(-c2noc(-c3ccccc3Br)n2)cc1)N1CCOCC1`, 1110 s. As for `CC(C)NC(=O)c1ccc(-c2nc3cc(NS(=O)(=O)c4ccc(F)cc4F)ccc3n2C)cc1`, the figure is 697 s; as for `Cc1cc(C(=O)NC2CCCC2)c2cccc(Cl)c2n1`, 840 s.

As to `Cn1cnc(S(=O)(=O)N2CCC(Cc3nncn3-c3ccccc3)CC2)c1`, the RP-LC retention time worked out at 629 s.

In turn, `COc1ccc(NC(=O)C2CCN(S(=O)(=O)c3ccc4[nH]c(=O)ccc4c3)CC2)cc1Cl` registered an RP-LC retention time of 752 s.

Molecule `CC(C)CC(=O)Nc1ccc(-c2nc(-c3ccc(F)cc3)no2)cc1` registered an RP-LC retention time of 1170 s. For the molecule `Cc1ccc(NC(=O)C2CCN(S(=O)(=O)c3ccc4c(c3)sc(=O)n4C(C)C)CC2)cc1C`, the RP-LC retention time was 953 s. With `CCN1CCN(C(=O)c2n[nH]c3c2CC(C)CC3)CC1` (configuration not stated), the RP-LC retention time was found to be 567 s.

In turn, `COCc1nc(CCNS(=O)(=O)Cc2ccccc2)no1` registered an RP-LC retention time of 722 s.

Regarding `CN1c2cc(C(=O)N3CCN(C4CCCCC4)CC3)ccc2C(=O)N2CCCCC21` (configuration not stated), the RP-LC retention time stood at 608 s. With `O=C(Cc1ccc(Cl)cc1)N1CCN(c2cc(-c3ccccc3)[nH]n2)CC1` the figure was 841 s.

`COc1cccc(NC(=O)C2CCCN(c3nc4ccccc4nc3OC)C2)c1` (configuration not stated) came in with an RP-LC retention time of 1100 s. With `CCN1CCN(c2nccc(-c3cnc4nc(-c5cccnc5)nn4c3C)n2)CC1` the figure was 574 s; with `CCCC1c2nccn2CCCN1C(=O)c1conc1C` (configuration not stated), 568 s; with `Cc1ccsc1CN1CC(Oc2ccc(-c3noc(C4CCOCC4)n3)cc2)C1`, 690 s. Take `Cc1scc2nc(C(=O)NC(C)C)nc(N(C)C)c12`: the RP-LC retention time was 581 s. With `CCCS(=O)(=O)NCc1ccc2c(c1)CCN2C(=O)c1ccc(Cl)cc1`, the RP-LC retention time came to 918 s.

In turn, `Cc1ccccc1S(=O)(=O)N1CCC(c2nc(C(=O)N(C)C)c(C)o2)CC1` showed an RP-LC retention time of 818 s. As for `COc1ccc(OCc2noc(CNS(=O)(=O)c3ccc4c(c3)CCCC4)n2)cc1`, the figure is 968 s. With `COc1ccccc1CNC(=O)Cn1c(=O)cc(-c2nc(C(C)C)no2)c2ccccc21` the figure was 972 s; with `CCN1C(=O)CN(C(=O)c2cccs2)CC12CCOCC2`, 631 s. As for `COc1ccc(Cl)cc1S(=O)(=O)N1CCC(c2cc3n(n2)CCCNC3=O)CC1`, the figure is 722 s; as for `O=[N+]([O-])c1ccc(-c2cn(-c3ccc(Cl)cc3)cn2)cc1`, 933 s; as for `Cc1ccc(-c2cn3c(CC(=O)NC4CCCC4)csc3n2)cc1C`, 798 s. Take `Cc1nc(-c2ccc3c(c2)CCN3C(=O)c2cccc(F)c2)cs1`: the RP-LC retention time was 992 s. Turning to `COCC1CCN(C(=O)CCC2CCN(c3cc(NC4CC4)ncn3)CC2)CC1`, the RP-LC retention time came to 636 s. For `Cc1cc(Cn2cnc3c2C[C@@H](C(=O)O)N(C(=O)C(c2ccccc2)c2ccccc2)C3)ccc1N`, the RP-LC retention time stood at 700 s. Molecule `Cc1ccc(NC(=O)N2CCC(n3cnc4cccnc43)CC2)c(Cl)c1` registered an RP-LC retention time of 676 s. As for `O=C(Cn1c(=O)c(CCC(=O)NC2CCCC2)nc2ccccc21)Nc1ccc(F)c(Cl)c1`, the figure is 672 s.
